{"source": "ChEMBL document CHEMBL3045049", "about": "“Synthesis and antiviral activity of new 3-methyl-1,5-diphenyl-1H-pyrazole derivatives” (Med Chem Res, 2012)", "key": {"[1]": {"tested_on": "Human alphaherpesvirus 1", "test": "Antiviral activity against Human herpesvirus 1 infected African green monkey Vero cells after 66 hr by viral plaque reduction assay", "assay_type": "functional", "set-up": "concentration or dose not given beside the values"}, "[2]": {"tested_on": "Vero", "test": "Cytotoxicity against Chlorocebus aethiops (African green monkey) Vero cells after 24 hr", "assay_type": "cell-based", "details": "chlorocebus sabaeus"}}, "note": "Calls of active or inactive are those of the source. No cut-off for these calls is given here.", "data": [{"smiles": "COc1ccc(OC)c(C2=NNC(c3c(C)nn(-c4ccccc4)c3-c3ccccc3)C2)c1", "note": "(centres undefined)", "values": [{"measurement": "Activity", "setting": "[1]", "value": 22, "unit": "%"}]}, {"smiles": "Cc1ccc(C(=O)/C=C/c2c(C)nn(-c3ccccc3)c2-c2ccccc2)cc1", "values": [{"measurement": "Activity", "setting": "[1]", "value": 10, "unit": "%"}]}, {"smiles": "CSc1cccc(Nc2nc(-c3ccc(C)cc3)cc(-c3c(C)nn(-c4ccccc4)c3-c3ccccc3)n2)c1", "values": [{"measurement": "Activity", "setting": "[1]", "value": 52, "unit": "%"}]}, {"smiles": "Cc1nn(-c2ccccc2)c(-c2ccccc2)c1C1CC(c2ccc(N)cc2)=NN1", "note": "(centres undefined)", "values": [{"measurement": "Activity", "setting": "[1]", "value": 10, "unit": "%"}]}, {"smiles": "Cc1nn(-c2ccccc2)c(-c2ccccc2)c1C1CC(c2cccc(N)c2)=NN1c1ccccc1", "note": "(centres undefined)", "values": [{"measurement": "Activity", "setting": "[1]", "value": 11, "unit": "%"}]}, {"smiles": "Cc1nn(-c2ccccc2)c(-c2ccccc2)c1/C=C/C(=O)c1cccc(N)c1", "values": [{"measurement": "Activity", "setting": "[1]", "value": 10, "unit": "%"}]}, {"smiles": "Cc1nn(-c2ccccc2)c(-c2ccccc2)c1C1CC(c2ccc(N)cc2)=NN1c1ccccc1", "note": "(centres undefined)", "values": [{"measurement": "Activity", "setting": "[2]", "value": "Toxic"}, {"measurement": "Activity", "setting": "[1]", "value": "inactive"}]}, {"smiles": "COc1ccc(C2=NN(c3ccccc3)C(c3c(C)nn(-c4ccccc4)c3-c3ccccc3)C2)cc1", "note": "(centres undefined)", "values": [{"measurement": "Activity", "setting": "[2]", "value": "Toxic"}, {"measurement": "Activity", "setting": "[1]", "value": "inactive"}]}, {"smiles": "Cc1nn(-c2ccccc2)c(-c2ccccc2)c1C1CC(c2ccc(Br)cc2)=NN1c1ccccc1", "note": "(centres undefined)", "values": [{"measurement": "Activity", "setting": "[2]", "value": "Toxic"}, {"measurement": "Activity", "setting": "[1]", "value": "inactive"}]}, {"smiles": "COc1ccc(OC)c(C2=NN(c3ccccc3)C(c3c(C)nn(-c4ccccc4)c3-c3ccccc3)C2)c1", "note": "(centres undefined)", "values": [{"measurement": "Activity", "setting": "[2]", "value": "Toxic"}, {"measurement": "Activity", "setting": "[1]", "value": "inactive"}]}, {"smiles": "COc1ccc(C(=O)/C=C/c2c(C)nn(-c3ccccc3)c2-c2ccccc2)cc1", "values": [{"measurement": "Activity", "setting": "[2]", "value": "Toxic"}, {"measurement": "Activity", "setting": "[1]", "value": "inactive"}]}, {"smiles": "COc1ccc(OC)c(C(=O)/C=C/c2c(C)nn(-c3ccccc3)c2-c2ccccc2)c1", "values": [{"measurement": "Activity", "setting": "[1]", "value": 17, "unit": "%"}]}, {"smiles": "Cc1nn(-c2ccccc2)c(-c2ccccc2)c1/C=C/C(=O)c1ccc(Br)cc1", "values": [{"measurement": "Activity", "setting": "[1]", "value": 22, "unit": "%"}]}, {"smiles": "Cc1nn(-c2ccccc2)c(-c2ccccc2)c1-c1cc(-c2ccc(Br)cc2)nc(N)c1C#N", "values": [{"measurement": "Activity", "setting": "[1]", "value": 51, "unit": "%"}]}, {"smiles": "Cc1nn(-c2ccccc2)c(-c2ccccc2)c1-c1cc(-c2ccc(Br)cc2)nc(N2C(=O)c3ccccc3C2=O)c1C#N", "values": [{"measurement": "Activity", "setting": "[1]", "value": 22, "unit": "%"}]}, {"smiles": "Cc1ccc(C2=NN(c3ccccc3)C(c3c(C)nn(-c4ccccc4)c3-c3ccccc3)C2)cc1", "note": "(centres undefined)", "values": [{"measurement": "Activity", "setting": "[2]", "value": "Toxic"}, {"measurement": "Activity", "setting": "[1]", "value": "inactive"}]}, {"smiles": "Cc1nn(-c2ccccc2)c(-c2ccccc2)c1/C=C/C(=O)c1ccc(N)cc1", "values": [{"measurement": "Activity", "setting": "[2]", "value": "Toxic"}, {"measurement": "Activity", "setting": "[1]", "value": "inactive"}]}, {"smiles": "Cc1ccc(C2=NNC(c3c(C)nn(-c4ccccc4)c3-c3ccccc3)C2)cc1", "note": "(centres undefined)", "values": [{"measurement": "Activity", "setting": "[1]", "value": 22, "unit": "%"}]}, {"smiles": "Cc1nn(-c2ccccc2)c(-c2ccccc2)c1-c1cc(-c2ccc(Br)cc2)nc2nc(/C=C/C(=O)O)[nH]c(=O)c12", "values": [{"measurement": "Activity", "setting": "[1]", "value": 10, "unit": "%"}]}, {"smiles": "Cc1nn(-c2ccccc2)c(-c2ccccc2)c1C1CC(c2cccc(N)c2)=NO1", "note": "(centres undefined)", "values": [{"measurement": "Activity", "setting": "[1]", "value": 22, "unit": "%"}]}, {"smiles": "Cc1ccc(C2=NOC(c3c(C)nn(-c4ccccc4)c3-c3ccccc3)C2)cc1", "note": "(centres undefined)", "values": [{"measurement": "Activity", "setting": "[1]", "value": 53, "unit": "%"}]}, {"smiles": "COc1ccc(C2=NOC(c3c(C)nn(-c4ccccc4)c3-c3ccccc3)C2)cc1", "note": "(centres undefined)", "values": [{"measurement": "Activity", "setting": "[2]", "value": "Toxic"}, {"measurement": "Activity", "setting": "[1]", "value": "inactive"}]}, {"smiles": "Cc1nn(-c2ccccc2)c(-c2ccccc2)c1C1CC(c2cccc(N)c2)=NN1", "note": "(centres undefined)", "values": [{"measurement": "Activity", "setting": "[1]", "value": 15, "unit": "%"}]}, {"smiles": "Cc1nn(-c2ccccc2)c(-c2ccccc2)c1-c1cc(-c2ccc(Br)cc2)[nH]c(=O)c1C#N", "values": [{"measurement": "Activity", "setting": "[1]", "value": 52, "unit": "%"}]}, {"smiles": "Cc1nn(-c2ccccc2)c(-c2ccccc2)c1C1CC(c2ccc(Br)cc2)=NN1", "note": "(centres undefined)", "values": [{"measurement": "Activity", "setting": "[1]", "value": 18, "unit": "%"}]}, {"smiles": "COc1ccc(C2=NNC(c3c(C)nn(-c4ccccc4)c3-c3ccccc3)C2)cc1", "note": "(centres undefined)", "values": [{"measurement": "Activity", "setting": "[1]", "value": 22, "unit": "%"}]}, {"smiles": "Cc1nn(-c2ccccc2)c(-c2ccccc2)c1C1CC(c2ccc(N)cc2)=NO1", "note": "(centres undefined)", "values": [{"measurement": "Activity", "setting": "[1]", "value": 10, "unit": "%"}]}, {"smiles": "Cc1nn(-c2ccccc2)c(-c2ccccc2)c1C1CC(c2ccc(Br)cc2)=NO1", "note": "(centres undefined)", "values": [{"measurement": "Activity", "setting": "[1]", "value": 10, "unit": "%"}]}, {"smiles": "Nc1nc2c(ncn2COCCO)c(=O)[nH]1", "note": "[ACYCLOVIR]", "values": [{"measurement": "Activity", "setting": "[1]", "value": 100, "unit": "%"}]}, {"smiles": "COc1ccc(O)c(C2=NOC(c3c(C)nn(-c4ccccc4)c3-c3ccccc3)C2)c1", "note": "(centres undefined)", "values": [{"measurement": "Activity", "setting": "[2]", "value": "Toxic"}, {"measurement": "Activity", "setting": "[1]", "value": "inactive"}]}]}
